According to patent US5789431A, “Naphthoquinone antitumor compound and method” (The University of North Carolina at Chapel Hill, priority 1996, dated 1998):
Where two headings read alike, the source gives them in different places.

Key:
human tumor cell lines = type: cell-based; details: for GI50: Homo sapiens; for cytotoxicity against tumor cells (in words): cancer cell line panel
LOX1MVI = assay: in vitro melanoma cell growth inhibition (NCI screen)
UACC-62 = assay: as above
CCRF-CEM = assay: in vitro leukemia cell growth inhibition (NCI screen)
HL-60(TB) = assay: as above
K-562 = assay: as above
MOLT-4 = assay: as above
SR = assay: as above
SF-268 = assay: in vitro CNS cancer cell growth inhibition (NCI screen)
SF-539 = assay: as above
U 251 = assay: as above
DLD-1 = assay: in vitro colon cancer cell growth inhibition (NCI screen)
HCT-116 = assay: as above
HCT-15 = assay: as above
HT 29 = assay: as above
KM 12 = assay: as above
786-0 = assay: in vitro renal cancer cell growth inhibition (NCI screen)
NCI-H460 = assay: in vitro non-small cell lung cancer cell growth inhibition (NCI screen)
NCI-H522 = assay: as above
LXFL 529 = assay: as above
MALME-3M = assay: in vitro melanoma cell growth inhibition (NCI screen)
M14 = assay: as above
RXF-393 = assay: in vitro renal cancer cell growth inhibition (NCI screen)
OVCAR-3 = assay: in vitro ovarian cancer cell growth inhibition (NCI screen)
SK-OV-3 = assay: as above
SK-MEL-5 = assay: in vitro melanoma cell growth inhibition (NCI screen)
NCI-H266 = assay: in vitro non-small cell lung cancer cell growth inhibition (NCI screen)
SW 620 = assay: in vitro colon cancer cell growth inhibition (NCI screen)
OVCAR-8 = assay: in vitro ovarian cancer cell growth inhibition (NCI screen)
SK-MEL-28 = assay: in vitro melanoma cell growth inhibition (NCI screen)
RPMI-8226 = assay: in vitro leukemia cell growth inhibition (NCI screen)
ACHN = assay: in vitro renal cancer cell growth inhibition (NCI screen)
IGROV1 = assay: in vitro ovarian cancer cell growth inhibition (NCI screen)
MCF7/ADR-RES = assay: in vitro breast cancer cell growth inhibition (NCI screen)
BT-549 = assay: as above
T-47D = assay: as above
PC-3 = assay: in vitro prostate cancer cell growth inhibition (NCI screen)
UACC-257 = assay: in vitro melanoma cell growth inhibition (NCI screen)
COLO-205 = assay: in vitro colon cancer cell growth inhibition (NCI screen)
MCF-7 = assay: in vitro breast cancer cell growth inhibition (NCI screen)
MDA-MB-435 = assay: as above
MDA-N = assay: as above
HOP-92 = assay: in vitro non-small cell lung cancer cell growth inhibition (NCI screen)
NCI-H23 = assay: as above
M19-MEL = assay: in vitro melanoma cell growth inhibition (NCI screen)
[1] = non-small cell lung, CNS, melanoma, colon, leukemia, small cell lung, and renal cancer cell lines, read-out: logGI50 values (range over cell lines) (converted)

Compound | GI50 (human tumor cell lines; [1]) | cytotoxicity log GI50 (LOX1MVI) | cytotoxicity log GI50 (UACC-62) | cytotoxicity log GI50 (CCRF-CEM) | cytotoxicity log GI50 (HL-60(TB)) | cytotoxicity log GI50 (K-562) | cytotoxicity log GI50 (MOLT-4) | cytotoxicity log GI50 (SR) | cytotoxicity log GI50 (SF-268) | cytotoxicity log GI50 (SF-539) | cytotoxicity log GI50 (U 251) | cytotoxicity log GI50 (HCT-116) | cytotoxicity log GI50 (HCT-15) | cytotoxicity log GI50 (HT 29) | cytotoxicity log GI50 (786-0) | cytotoxicity log GI50 (NCI-H460) | cytotoxicity log GI50 (NCI-H522) | cytotoxicity log GI50 (LXFL 529) | cytotoxicity log GI50 (MALME-3M) | cytotoxicity log GI50 (M14) | also measured
COc1ccc(Cn2c(C)nc3c2C(=O)c2ccccc2C3=O)cc1 [Compound 18] | 1 to 10 µM | -5.60 M | -5.34 M | -5.39 M | -5.38 M | -5.49 M | -5.59 M | -5.84 M | -5.35 M | -5.42 M | -5.20 M | -5.43 M | -5.76 M | -5.31 M | -5.27 M | -5.62 M | -5.22 M | -5.37 M |  |  | cytotoxicity log GI50 (DLD-1): -5.33 M; cytotoxicity log GI50 (KM 12): -5.27 M
CCn1c(-c2ccc(F)cc2)nc2c1C(=O)c1ccccc1C2=O [Compound 26] |  |  |  |  |  |  |  |  |  |  |  |  |  |  |  |  |  |  | -4.35 M | -4.15 M | GI50 (human tumor cell lines; cancer cell panel, general / most cell lines, read-out: logGI50 values in the cancer cell line panel (converted)): ~10 µM; cytotoxicity log GI50 (RXF-393): -4.27 M; cytotoxicity log GI50 (OVCAR-3): -4.47 M; cytotoxicity log GI50 (SK-OV-3): -4.68 M
CCn1c(CCl)nc2c1C(=O)c1ccccc1C2=O [Compound 22] |  |  | -5.89 M | -6.76 M |  |  | -6.45 M | -6.40 M |  |  |  |  |  |  |  |  | -6.53 M |  | -5.98 M |  | GI50 (human tumor cell lines; cancer cells, printed as GI50, log scale values, read-out: GI50 values): 0.158 to 1 µM; cytotoxicity against tumor cells (in words) (human tumor cell lines): highly active against many of the cancer cell types tested; cytotoxicity log GI50 (SK-MEL-5): -6.38 M; cytotoxicity log GI50 (SK-OV-3): -6.29 M; cytotoxicity log GI50 (NCI-H266): -6.65 M
Cc1ccc(Cn2c(C)nc3c2C(=O)c2ccccc2C3=O)cc1 [Compound 17] | 1 to 10 µM | -6.22 M | -5.95 M | -5.70 M | -5.72 M | -6.08 M | -6.19 M | -6.48 M | -5.46 M | -5.88 M | -5.73 M | -6.12 M | -6.21 M | -5.90 M | -5.66 M | -6.41 M | -5.50 M | -5.76 M |  |  | cytotoxicity against tumor cells (in words) (human tumor cell lines): highly active against many of the cancer cell types tested; cytotoxicity log GI50 (DLD-1): -5.91 M; cytotoxicity log GI50 (SW 620): -5.48 M; cytotoxicity log GI50 (OVCAR-8): -5.52 M
COc1cc(OC)cc(C(=O)NC2=C(Cl)C(=O)c3ccccc3C2=O)c1 [Compound 2h] |  |  | -6.82 M | -6.70 M | -7.04 M | -6.39 M |  | -6.33 M |  |  |  | -6.35 M | -6.38 M |  |  |  | -6.49 M |  |  | -6.26 M | cytotoxicity against tumor cells (in words) (human tumor cell lines): similarly potent cytotoxic activity; cytotoxicity log GI50 (SK-MEL-28): -5.85 M; cytotoxicity log GI50 (SK-MEL-5): -5.89 M; cytotoxicity log GI50 (RPMI-8226): -6.31 M; cytotoxicity log GI50 (KM 12): -5.92 M; cytotoxicity log GI50 (SW 620): -6.24 M; cytotoxicity log GI50 (ACHN): -6.39 M; cytotoxicity log GI50 (RXF-393): -6.28 M; cytotoxicity log GI50 (IGROV1): -5.86 M; cytotoxicity log GI50 (MCF7/ADR-RES): -5.83 M; cytotoxicity log GI50 (BT-549): -5.81 M; cytotoxicity log GI50 (T-47D): -5.85 M; cytotoxicity log GI50 (PC-3): -6.24 M
COc1ccc(-n2c(CCCC(=O)O)nc3c2C(=O)c2ccccc2C3=O)cc1 [Compound 59] |  |  | -4.63 M | -4.44 M | -4.51 M |  |  |  |  |  |  | -4.44 M | -4.35 M |  |  |  | -4.59 M |  | -4.82 M | -4.81 M | cytotoxicity log GI50 (UACC-257): -4.56 M; cytotoxicity log GI50 (RPMI-8226): -4.44 M; cytotoxicity log GI50 (COLO-205): -4.43 M; cytotoxicity log GI50 (OVCAR-3): -4.48 M; cytotoxicity log GI50 (MCF-7): -4.49 M; cytotoxicity log GI50 (MDA-MB-435): -4.58 M; cytotoxicity log GI50 (MDA-N): -4.50 M; cytotoxicity log GI50 (BT-549): -5.06 M; cytotoxicity log GI50 (HOP-92): -4.69 M; cytotoxicity log GI50 (NCI-H23): -4.36 M
Cc1nc2c(n1Cc1ccc(F)cc1)C(=O)c1ccccc1C2=O [Compound 19] | 1 to 10 µM | -5.14 M | -5.28 M | -4.98 M | -5.26 M | -5.25 M | -5.27 M | -5.37 M | -5.34 M | -5.16 M | -5.18 M | -5.16 M | -5.37 M | -5.03 M | -4.88 M | -5.39 M | -4.97 M | -4.87 M | -5.05 M |  | cytotoxicity log GI50 (M19-MEL): -5.44 M; cytotoxicity log GI50 (SK-MEL-5): -4.99 M; cytotoxicity log GI50 (RXF-393): -4.83 M; cytotoxicity log GI50 (OVCAR-3): -4.82 M; cytotoxicity log GI50 (NCI-H23): -4.88 M
